The record followed here is patent publication US12552846B2, “Modified BCL9 mimetic peptides” (Sapience Therapeutics, Inc., priority 2019, dated 2026).

Assay [1] concerns HL60 promyelocytic leukemia cells. Kind of assay: Cytotoxicity assay in HL60 cells (Annexin V FITC / PI flow cytometry). Type of assay: cell-based. The following applies: 48 hours, 0-80 μM, % Viability (Annexin V low, PI low). In a few lines: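 HL60 cells at 3.5×10^3/well in RPMI + 1.5% FBS exposed to peptides at 0-80 μM final for 48 h at 37 °C. Viability by flow cytometry after Annexin V-FITC/PI staining, gated on FSC vs SSC. % Viability is the fraction that is Annexin V^low and PI^low.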
Background: In flow cytometry, cells or beads pass a laser one at a time.

In the next assay the test system is MCF7 breast cancer cells. Briefly: MCF7 subcutaneous tumor model, tumor volume. The following applies: for tumor volume relative to vehicle and to peptide control BCL-134: 1 mg/kg or 5 mg/kg s.c. three times weekly for three weeks, dosing from day 14, starting tumor about 340 mm^3, p≤0.0004. Type of assay: in vivo, NU/J mice. Here is the method: In this experiment, we examined the effect of peptide BCL-26 on tumor volume in an MCF7 subcutaneous tumor model. Briefly, 2×10^6 MCF7 breast cancer cells, suspended 1:1 in Matrigel, were implanted via subcutaneous injection into the axilla of NU/J mice. Peptide BCL-26 was administered at a dose of 12.5 mg/kg via subcutaneous injection three times weekly for three weeks. Dosing was initiated on day 2 post tumor inoculation, with an average starting tumor volume of about 25 mm^3.
We also examined the effect of BCL9 mimetic peptides in established tumors. MCF7 cells were implanted into mice as described above. Peptide BCL-87 was administered at a dose of 5 mg/kg via subcutaneous injection three times weekly for three weeks. Dosing was initiated on day 21 post tumor inoculation, with an average starting tumor volume of about 470 mm^3.
We additionally examined the effect of different concentrations of mimetic peptides in established tumors. MCF7 cells were implanted into mice as described above. Peptides BCL-27 and BCL-87 were administered at a dose of 1 mg/kg or 5 mg/kg via subcutaneous injection three times weekly for three weeks. Dosing was initiated on day 14 post tumor inoculation, with an average starting tumor volume of about 340 mm^3.

The subject of assay [2] is MCF-7 breast cancer cells. Briefly: MTT cell viability / anti-proliferative assay in MCF-7 cells. Type of assay: cell-based. As to conditions: MCF7 cells, compared to peptide ST-BC1. As for the experimental part: MCF-7 breast cancer cells set at a density of 2.5×10^4 cells/well in 150 μL of MEM medium+10% fetal bovine serum (FBS) in a 96 well dish. Lyophilized BCL9 peptides were reconstituted at a concentration of 10 mg/mL in 270 mM trehalose buffer and added to each well at a volume of 50 μL to a final concentration range of 2.5-40 μM. Cells were incubated with BCL9 peptides for 96 hours at 37° C.
Cell viability was quantified by spectrophotometry using Roche MTT cell proliferation assay kit according to manufacturer's instructions. Briefly, cells were washed with PBS, and incubated in fresh MEM medium with 10% FBS, 1% penicillin/streptomycin, and 1% non-essential amino acids, plus 10 μL MTT reagent at 37° C. for 4 hours. After 4 hours, 100 μL of solubilization solution was added, and cells were incubated overnight at 37° C. and 5% carbon dioxide. Absorbance was measured at OD570 nm with a reference of OD650 nm. The degree of absorption is proportional to the number of living cells. Percentage of absorbance relative to untreated controls was quantified and presented as % Cell Viability.
In functional assays, EC50 is the concentration that reduces a biological response by 50% of its maximum. In the case of BLC9 peptides, EC50 is measured as the concentration that reduces cell viability by 50% of its maximum. EC50 can be calculated by any number of means known in the art.

Square brackets hold non-standard residues; d marks the D form. Peptide text beside a SMILES is read from it. d2Nal = N[C@H](Cc1ccc2ccccc2c1)C(=O)O Where only a bound is given, the exact number is not on record here.

As a reminder, the EC50 is the concentration needed to bring the measured effect to its halfway point. Read a low EC50 as greater potency. `CSCC[C@@H](NC(=O)[C@@H](CC(C)C)NC(=O)[C@H](N)Cc1ccccc1)C(=O)N[C@H](CCCNC(=N)N)C(=O)N[C@H](CCC(N)=O)C(=O)N[C@H](CC(C)C)C(=O)N[C@H](CC(=O)O)C(=O)N[C@H](CCCNC(=N)N)C(=O)N[C@H](CC(C)C)C(=O)N[C@@H](C(=O)N[C@H](CCC(N)=O)C(=O)N[C@H](CC(C)C)C(=O)N[C@H](C)C(=O)N[C@H](CCCCN)C(=O)N[C@H](CC(C)C)C(=O)N[C@@H](C(=O)N1CCC[C@@H]1C(=O)N[C@@H](C(=O)O)C(C)C)[C@H](C)O)[C@H](C)O` [BCL-26, FLMRQLDRLTQLAKLTPV] (H-[dF][dL][dM][dR][dQ][dL][dD][dR][dL][dT][dQ][dL][dA][dK][dL][dT][dP][dV]-OH; N-terminus and C-terminus assumed): in assay [1], the EC50 is > 10000 nM. Also, the “tumor volume relative to vehicle” value in the assay on MCF7 breast cancer cells (12.5 mg/kg s.c. three times weekly for three weeks, dosing from day 2, starting tumor about 25 mm^3, p<0.0001) is recorded as “significantly reduced tumor volume”.

On to `CC(C)C[C@@H](NC(=O)[C@@H](Cc1c[nH]c2ccccc12)NC(=O)[C@H](N)Cc1c[nH]c2ccccc12)C(=O)N[C@H](C)C(=O)N[C@H](CCCNC(=N)N)C(=O)N[C@H](CCC(N)=O)C(=O)N[C@H](CC(C)C)C(=O)N[C@H](C)C(=O)N[C@H](CCCNC(=N)N)C(=O)N[C@H](CC(C)C)C(=O)N[C@H](C)C(=O)N[C@H](CCC(N)=O)C(=O)N[C@H](CC(C)C)C(=O)N[C@H](C)C(=O)N[C@H](CCCCN)C(=O)N[C@H](CC(C)C)C(=O)N[C@@H](C(=O)N1CCC[C@@H]1C(=O)N[C@@H](C(=O)O)C(C)C)[C@H](C)O` [BCL-27, WWLARQLARLAQLAKLTPV] (H-[dW][dW][dL][dA][dR][dQ][dL][dA][dR][dL][dA][dQ][dL][dA][dK][dL][dT][dP][dV]-OH; N-terminus and C-terminus assumed), for which the EC50 in assay [1] was in the range of 2000 to 10000 nM. Moreover, the “tumor volume relative to vehicle and to peptide control BCL-134” value in the assay on MCF7 breast cancer cells is listed as “significantly reduced tumor volume”. In the case of “YGRKKRRQRRRLSQEQLEHRERSLQTLRDIQRMLF [BCL-21, TAT cell-penetrating region plus native BCL9 HD2 domain]”, in assay [2], the anti-proliferative activity entry was “inefficient at inhibiting cell proliferation”. `CC(C)C[C@@H](NC(=O)[C@@H](CCCNC(=N)N)NC(=O)[C@@H](C)NC(=O)[C@@H](CC(C)C)NC(=O)[C@@H](CCC(N)=O)NC(=O)[C@@H](CCCNC(=N)N)NC(=O)[C@@H](C)NC(=O)[C@@H](CC(C)C)NC(=O)[C@@H](Cc1c[nH]c2ccccc12)NC(=O)[C@@H](Cc1c[nH]c2ccccc12)NC(=O)CNC(=O)[C@@H](CCCNC(=N)N)NC(=O)CNC(=O)[C@@H](CC(=O)O)NC(=O)[C@@H](CO)NC(=O)[C@H]1CCCN1)C(=O)N[C@H](C)C(=O)N[C@H](CCC(N)=O)C(=O)N[C@H](CC(C)C)C(=O)N[C@H](C)C(=O)N[C@H](CCCCN)C(=O)N[C@H](CC(C)C)C(=O)N[C@@H](C(=O)N1CCC[C@@H]1C(=O)N[C@@H](C(=O)O)C(C)C)[C@H](C)O` [BCL-87] (H-[dP][dS][dD]G[dR]G[dW][dW][dL][dA][dR][dQ][dL][dA][dR][dL][dA][dQ][dL][dA][dK][dL][dT][dP][dV]-OH; N-terminus and C-terminus assumed) gave an EC50 in assay [1] of 2000 to 10000 nM. In the assay with MCF7 breast cancer cells, the “tumor volume relative to vehicle and to peptide control BCL-134” value is “significantly reduced tumor volume”. Further, in the assay with MCF7 breast cancer cells (5 mg/kg s.c. three times weekly for three weeks, dosing from day 21, starting tumor about 470 mm^3, p<0.005), the “tumor volume relative to vehicle” value is “significantly reduced tumor volume”. For the compound `CC(C)C[C@@H](NC(=O)[C@@H](CCCNC(=N)N)NC(=O)[C@@H](C)NC(=O)[C@@H](CC(C)C)NC(=O)[C@@H](CCC(N)=O)NC(=O)[C@@H](CCCNC(=N)N)NC(=O)[C@H](NC(=O)[C@@H](CC(C)C)NC(=O)[C@@H](Cc1c[nH]c2ccccc12)NC(=O)[C@H](CCCNC(=N)N)NC(=O)[C@H](N)Cc1ccccc1)C(C)C)C(=O)N[C@H](C)C(=O)N[C@H](CCC(N)=O)C(=O)N[C@H](CC(C)C)C(=O)N[C@H](C)C(=O)N[C@H](CCCCN)C(=O)N[C@H](CC(C)C)C(=O)N[C@@H](C(=O)N1CCC[C@@H]1C(=O)N[C@@H](C(=O)O)C(C)C)[C@H](C)O` [BCL-130] (H-[dF]R[dW][dL][dV][dR][dQ][dL][dA][dR][dL][dA][dQ][dL][dA][dK][dL][dT][dP][dV]-OH; N-terminus and C-terminus assumed), the EC50 in assay [1] is < 2000 nM. Still for that read-out and setting: the value for `CC(C)C[C@@H](NC(=O)[C@@H](Cc1c[nH]c2ccccc12)NC(=O)[C@H](N)Cc1ccc2ccccc2c1)C(=O)N[C@H](C)C(=O)N[C@H](CCCNC(=N)N)C(=O)N[C@H](CCC(N)=O)C(=O)N[C@H](CC(C)C)C(=O)N[C@H](C)C(=O)N[C@H](CCCNC(=N)N)C(=O)N[C@H](CC(C)C)C(=O)N[C@H](C)C(=O)N[C@H](CCC(N)=O)C(=O)N[C@H](CC(C)C)C(=O)N[C@H](C)C(=O)N[C@H](CCCCN)C(=O)N[C@H](CC(C)C)C(=O)N[C@@H](C(=O)N1CCC[C@@H]1C(=O)N[C@@H](C(=O)O)C(C)C)[C@H](C)O` [BCL-78] (H-[d2Nal][dW][dL][dA][dR][dQ][dL][dA][dR][dL][dA][dQ][dL][dA][dK][dL][dT][dP][dV]-OH; N-terminus and C-terminus assumed) was < 2000 nM.
